Measurements taken from PubChem BioAssay AID1996.
≈ marks a conversion by molar mass, not a printed value.

settings: buffer; pH 7.4; 200.0 µM

| Compound | solubility kinetic [µg/mL] |
| --- | --- |
| O=C(c1cccc(O)c1)N1CCN(C(=O)C2CC2)CC1 | > 41.1 |
| O=c1[nH]c(=S)n(C2CC2)c(O)c1C=Nc1ccc2c(c1)OCO2 | 1.3 (≈ 3.92 µM) |
| Cc1cc(C)cc(OCC(=O)O/N=C(\N)c2ccccc2Cl)c1 | 13.3 (≈ 40 µM) |
| Cn1ncc2c(=O)[nH]cnc21 | > 22.5 |
| Cc1csc2c(=O)sc(NC(=O)c3ccc(F)cc3Cl)nc12 | < 0.4 |
| O=C(Nc1ccc(S(=O)(=O)N2CCc3ccccc32)cc1)C(F)(F)F | > 55.6 |
| O=S(=O)(c1ccc2c(c1)CCN2)N1CCOCC1 | > 40.2 |
| CC(=O)N1CCN(C(=S)NC(=O)c2ccc(F)cc2)CC1 | > 46.4 |
| COc1ccc(C(C)=O)cc1CSC(=N)N.Cl | > 41.2 |
| CC(=O)N1CCN(CC(=O)Nc2sccc2C#N)CC1 | 39 (≈ 133 µM) |
| Cc1cc2c(Nc3ccc(O)cc3)ncnc2s1.Cl | > 44.1 |
| O=C(Nc1cccc(C(=O)Nc2ccc(Cl)cn2)c1)c1ccccc1 | 0.7 (≈ 1.99 µM) |
| CCN(CC)CCC(C)OC(=O)c1ccc(O)cc1O.Cl (stereo unspecified) | > 47.7 |
| CN1CCCC(OC(=O)c2cc(F)c(F)c(F)c2F)C1.Cl (stereo unspecified) | 45.4 |
| CC(C)NC(=O)c1ccc(CSCc2ccccc2Cl)o1 | > 48.6 |
| CSc1ncccc1C(=O)Nc1nc(C(C)(C)C)cs1 | 37.6 (≈ 122 µM) |
| Cc1cc(C)nc(N(C#N)Cc2cccc(Cl)c2)n1 | 23.6 (≈ 86.5 µM) |
| CC(=O)C1C(=O)c2c(cccc2[N+](=O)[O-])C1=Nc1cccc(Cl)c1 (stereo unspecified) | 1.6 (≈ 4.67 µM) |
| COc1ccc(Cl)cc1NC(=S)NCCN1CCOCC1 | > 49.5 |
| O=C(NC(=S)NCc1ccco1)c1cccc(Cl)c1 | 2.7 (≈ 9.16 µM) |
| O=C1N/C(=N\c2ccccn2)SC1Cc1ccc(Cl)cc1 (stereo unspecified) | < 0.2 |
| CC1CCCN(S(=O)(=O)c2cccc([N+](=O)[O-])c2)C1 (stereo unspecified) | 13.3 (≈ 46.8 µM) |
| CC1C(=O)N2CCCc3cc(NC(=O)c4ccccc4F)cc1c32 (stereo unspecified) | > 48.7 |
| O=C(NCC1CCCO1)c1ccc(NC(=O)c2ccc(Br)cc2)cc1 (stereo unspecified) | 1.2 (≈ 2.98 µM) |
| CNC(=S)/N=C/NOCc1c(Cl)cccc1Cl | 9.5 (≈ 32.5 µM) |

| Compound | solubility kinetic [µg/mL] |
| --- | --- |
| COc1cc(NC(=O)NC2Cc3ccccc3C2)cc(OC)c1 | < 0.3 |
| O=C(NCCNC(=O)c1cnccn1)c1ccc(Cl)cc1 | > 45.7 |
| Cc1cc(C)c(S(=O)(=O)c2ccc(F)cc2C)c(Cl)n1 | 36.8 (≈ 117 µM) |
| O=C(CCCNC(=O)c1ccc(Cl)cc1)Nc1ccccc1F | 33.5 (≈ 100 µM) |
| CCSC1=C(C#N)C(c2ccc(C)o2)CC(=O)N1 (stereo unspecified) | > 39.3 |
| O=C(COC(=O)c1ccccc1)Nc1ncc([N+](=O)[O-])s1 | > 46.1 |
| COc1ccc(OC)c(NC(=O)Cc2cccs2)c1 | 30.4 (≈ 110 µM) |
| Cn1c(/C=C/c2cccc(Br)c2)nc2ccccc2c1=O | 0.7 (≈ 2.05 µM) |
| CN(C)c1cccc2cccc(N(C)C)c12 | 31.2 (≈ 146 µM) |
| COc1cc(OC)nc(Oc2ccccc2/C=N/O)n1 | > 41.3 |
| Cc1nc(=S)c2c([nH]1)-c1ccccc1CC21CCCCC1 | 0.3 (≈ 1.01 µM) |
| COc1ccc(C(=O)NCCCc2ccccc2)cc1OC | > 44.9 |
| O=C(Nc1nncs1)C1CC(=O)N(C2CCCC2)C1 (stereo unspecified) | > 42.1 |
| CCOc1ncccc1C(=O)Nc1ccc(C)cn1 | 31.8 (≈ 124 µM) |
| Nc1ncncc1-c1ccc(Cl)cc1 | > 30.8 |
| O=C(Cc1cccc2ccccc12)Nc1cc(C(=O)O)cc(C(=O)O)c1 | > 52.4 |
| CCN(CC)C(=O)c1ccc(CS(=O)(=O)Cc2ccccc2)cc1 | > 51.8 |
| COC(=O)C1Cc2c([nH]c3ccccc23)C(C(C)C)N1 (stereo unspecified) | 33.4 (≈ 123 µM) |
| O=C(COC(=O)c1ccc(O)cc1)Nc1ccc2c(c1)OCCO2 | 21.9 (≈ 66.5 µM) |
| Cc1cc(C)c(S(=O)(=O)N2CCCc3ccccc32)c(C)c1 | 1.8 (≈ 5.71 µM) |
| COc1ccc(C(=O)n2cnc3ccccc32)cc1[N+](=O)[O-] | 29.4 (≈ 98.9 µM) |
| CCn1c(Cc2ccc(OC)cc2)nc2ccccc21 | > 40 |
| COc1ccccc1CNC(=O)COC(=O)c1ccc(Cl)nc1 | > 50.2 |
| O=C(COC(=O)c1ccc([N+](=O)[O-])o1)Nc1ccc2c(c1)OCO2 | 16.9 (≈ 50.6 µM) |
| O=C(CSc1ncnc2ccccc12)NC1CCS(=O)(=O)C1 (stereo unspecified) | > 50.6 |

| Compound | solubility kinetic [µg/mL] |
| --- | --- |
| O=S(=O)(c1ccc(Cl)nc1)N1CCN(c2ncccn2)CC1 | 1 (≈ 2.94 µM) |
| CN(CC(=O)Nc1cccc(F)c1)C(=O)CC1CCCCC1 | 21.1 (≈ 68.9 µM) |
| O=C(Cc1c(F)cccc1Cl)NCCN1CCOCC1 | > 45.1 |
| CN1C=C/C(=C\c2cc[n+](C)c3ccccc23)c2ccccc21.[I-] | 40.1 |
| O=C(NCc1ccccc1)NCC12CC3CC(CC(C3)C1)C2 | 1.3 (≈ 4.36 µM) |
| CCC(=O)N1CCc2cc(S(=O)(=O)Nc3ccccc3C)ccc21 | < 0.4 |
| Cc1cc(C)cc(C(=O)Nc2cccnc2)c1 | > 33.9 |
| Cn1ccnc1SCC(=O)NC1CCCC1 | 28.8 (≈ 120 µM) |
| Cc1ccc(NC(=O)CO/N=C/c2ccccc2C)c(C)c1 | 8.7 (≈ 29.4 µM) |
| CN(C(=O)C1CCC(=O)N(C2CC2)C1)C1CCCCC1 (stereo unspecified) | > 41.8 |
| Cl.O=C(OCCN1CCCCC1)c1cccc(F)c1 | > 43.2 |
| O=C(Nc1ccccc1)Nc1ccc2ncoc2c1 | 27.5 (≈ 109 µM) |
| Cc1cccc(NC(=O)C(Cc2ccccc2)n2cccc2)c1 (stereo unspecified) | 11.6 (≈ 38.1 µM) |
| CC(O)c1nc2ccccc2n1Cc1ccccc1 (stereo unspecified) | 35.6 (≈ 141 µM) |
| S=C1SCN(CC2CC2)CN1CC1CC1 | > 36.4 |
| Cc1ccc(S(=O)(=O)N(C)C)cc1NC(=O)c1sccc1Cl | 2.4 (≈ 6.69 µM) |
| CCn1c(NC(=O)C(C)C)c(-c2ccccc2)c(=O)c2ccccc21 | 30.9 (≈ 92.4 µM) |
| O=C(COc1ccc(Cl)cc1)N1CCCCCCC1 | 31.8 (≈ 113 µM) |
| O=C(NCc1cc2ccccc2[nH]1)c1ccccc1F | > 40.2 |
| O=C(c1ccccc1)N1C(=O)C(c2ccccc2)Oc2ccccc21 (stereo unspecified) | 3.1 (≈ 9.41 µM) |
| Fc1ccc(NC(=S)Nc2cccc3ccccc23)cc1F | 29.3 (≈ 93.2 µM) |
| O=C(c1cc(Br)c[nH]1)N1CCCCC1 | > 38.6 |
| CSc1ccccc1C(=O)C1CCCN(S(=O)(=O)N(C)C)C1 (stereo unspecified) | > 51.4 |
| O=C(Nc1ccccc1C(=O)NC1CC1)c1ccc([N+](=O)[O-])o1 | > 47.3 |
| NS(=O)(=O)c1ccc(NC2=CC(=O)C(=O)c3ccccc32)cc1 | 13.6 (≈ 41.4 µM) |

| Compound | solubility kinetic [µg/mL] |
| --- | --- |
| N#C/C(=C(/O)CN1CCCC1)c1nc(-c2ccccc2)cs1 | > 46.7 |
| Cc1nc2ccc(NS(=O)(=O)c3ccc(F)c(C)c3)cc2[nH]1 | > 47.9 |
| Cc1ncc([N+](=O)[O-])n1CCO | > 25.7 |
| CC(=O)c1ccc(NS(=O)(=O)c2ccc(C(C)(C)C)cc2)cc1 | 1.7 (≈ 5.13 µM) |
| Cc1ccc(S(=O)(=O)c2c(C)cc(C)[nH]c2=O)c(C)c1 | > 43.7 |
| Nc1ccc(SCC(=O)Nc2cccc([N+](=O)[O-])c2)cc1 | > 45.5 |
| Cc1ccc(C)c(OCCC(=O)Nc2ccccc2C(=O)NC2CC2)c1 | 4.2 (≈ 11.9 µM) |
| COc1ccc(CC(=O)NCCCCc2ccccc2)cc1OC | > 49.1 |
| COc1ccc(NS(=O)(=O)c2cc(C(=O)NNC(=O)c3ccncc3)ccc2OC)c(OC)c1 | > 73 |
| CC(C)(CCO)Nc1ncnc2onc(-c3ccc(F)cc3)c12 | > 47.5 |
| COc1ccc(C(=O)O/N=C(/c2cccs2)C(C)(C)C)cc1 | 2.4 (≈ 7.56 µM) |
| O=C1C(Nc2ccccc2)=C2CCCC=C2N1c1ccccc1 | 1.8 (≈ 5.95 µM) |
| NC(=O)c1ccc(N2CCC(C(N)=O)CC2)c([N+](=O)[O-])c1 | 38.4 (≈ 131 µM) |
| Cc1cc([N+](=O)[O-])nn1CC(=O)N1CCN(Cc2ccccc2)CC1 | > 51.5 |
| N#Cc1c(C(F)(F)F)cc(-c2ccc(F)cc2)nc1SCC(=O)O | 51.2 (≈ 144 µM) |
| O=C(COC(=O)c1ccc(C(F)(F)F)cc1)Nc1cccc(S(=O)(=O)NC2=NCCCCC2)c1 | 10.5 (≈ 21.1 µM) |
| COC(=O)c1c(C)[nH]c(C(=O)NCc2ccco2)c1C | 35.3 (≈ 128 µM) |
| Cc1ccc(NC(=O)N2CCc3ccccc3C2)cc1C | 0.9 (≈ 3.21 µM) |
| Cc1ccccc1OCC(=O)Nc1nc(-c2ccncc2)cs1 | 4.9 (≈ 15.1 µM) |
| O=C(CNC(=O)c1ccccc1Cl)c1ccccc1 | 37.6 (≈ 137 µM) |
| Cc1cc(=O)oc2cc(OCC(=O)Nc3ccccc3C(=O)O)ccc12 | 52.9 (≈ 150 µM) |
| Cc1cc(C)cc(NC(=O)CCc2ccc(C)o2)c1 | 34.6 (≈ 134 µM) |
| Cc1csc(NC(=O)CSc2nncs2)n1 | > 40.9 |
| O=C(NC1CC1)C1CCCN(C(=O)NC2CCCCC2)C1 (stereo unspecified) | > 44 |
| CCOc1ccccc1C(=O)Nc1cc(C)ccc1NC(=O)c1ccco1 | 43.4 (≈ 119 µM) |

| Compound | solubility kinetic [µg/mL] |
| --- | --- |
| Cc1cc(C)c(C(=O)NCC(=O)c2ccccc2)c(C)c1 | 8.8 (≈ 31.3 µM) |
| Cc1nc(NC(=S)NC(=O)c2ccccc2)sc1C | 0.3 (≈ 1.03 µM) |
| Cc1ccc(NC(=O)CCN2C(=O)c3ccccc3C2=O)cc1C | 4.6 (≈ 14.3 µM) |
| CCC(CO)NCC(O)COCc1ccc2c(c1)OCO2 (stereo unspecified) | > 44.6 |
| O=C(CN1C(=O)NC2(CCc3ccccc32)C1=O)c1ccccc1 (stereo unspecified) | 40.1 (≈ 125 µM) |
| COc1ccc(/C=C/C(=O)O)cc1S(=O)(=O)N1CCC(C)CC1 | > 50.9 |
| COc1ccc(OC)c(S(=O)(=O)N2CCc3ccccc3C2)c1 | 22.1 (≈ 66.3 µM) |
| Cc1nc2cc3c(cc2s1)OCO3 | 13.1 (≈ 67.8 µM) |
| CCOc1ccc(OCCCCn2cnc3ccccc3c2=O)cc1 | 0.7 (≈ 2.07 µM) |
| CSc1ccc(CN(C)CC(=O)NCCc2ccccc2)cc1 | > 49.3 |
| CC(=O)c1sc2nsc(SCCN3CCCC3)c2c1N | 46.7 (≈ 143 µM) |
| Cc1ccc(Cc2c(C)c(C#N)c3[nH]c4ccccc4n3c2=O)cc1 | < 0.2 |
| COC(=O)c1sccc1NC(=O)CNC(=O)c1ccccc1 | > 47.8 |
| CCN(c1ccccc1)S(=O)(=O)c1c(C)noc1C | 31.4 (≈ 112 µM) |
| Cc1ccc(S(=O)(=O)NC2CCCCCCC2)cc1 | 24.3 (≈ 86.3 µM) |
| CC1Cc2ccccc2N1NC(=O)c1ccc(Cl)c(S(N)(=O)=O)c1 (stereo unspecified) | > 54.9 |
| CC(=O)c1c(C)[nH]c(C(=O)Nc2ccc(F)c(F)c2F)c1C | 1.8 (≈ 5.8 µM) |
| COc1cc(/C=C/C(=O)OCC(=O)Nc2cc(S(=O)(=O)N3CCOCC3)ccc2Cl)cc(OC)c1OC | 5.3 (≈ 9.55 µM) |
| CNCc1cc(Cl)cc(OC)c1OC(C)C.Cl | > 42 |
| Cc1cc(SCc2ccc(Br)cc2)nc(=O)[nH]1 | 6 (≈ 19.3 µM) |
| CCOC(=O)c1[nH]cnc1C(=O)Nc1ccccc1C | 10.3 (≈ 37.7 µM) |
